± gives the standard deviation of the averaged measurements.
Columns and labels:
[1] = tested on: 409B2 hiPSC (iCRISPR Cas9, FRMD7 editing); experiment: cell survival relative to solvent control (fold (ratio to mock)); higher = more surviving cells
Method: (§1)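 Subset screen of 55 drugs tested at 5 concentrations around the effective screening dose, in 409B2 iCRISPR Cas9 hiPSCs editing FRMD7 with a ssDNA donor. Drugs were applied for 24 h. Viability was read by resazurin and editing outcomes by amplicon sequencing (HDR, NHEJ <2 bp microhomology, MMEJ ≥2 bp microhomology). Values are relative to solvent mock controls; two biological replicates.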

[2] = tested on: 409B2 hiPSC (iCRISPR Cas9, FRMD7 editing); experiment: MMEJ-attributed deletion frequency relative to solvent control (fold (ratio to mock)); higher = more MMEJ outcomes
Method: as §1

[3] = tested on: 409B2 hiPSC (iCRISPR Cas9, FRMD7 editing); experiment: HDR (precise edit) frequency relative to solvent control (fold (ratio to mock)); higher = more homology-directed repair outcomes
Method: as §1

[4] = tested on: 409B2 hiPSC (iCRISPR Cas9, FRMD7 editing); experiment: NHEJ-attributed indel frequency relative to solvent control (fold (ratio to mock)); higher = more NHEJ outcomes
Method: as §1

Compound	cell survival ([1]; 20 nM)	cell survival ([1]; 50 nM)	cell survival ([1]; 100 nM)	cell survival ([1]; 200 nM)	cell survival ([1]; 500 nM)	MMEJ-attributed deletion frequency ([2]; 20 nM)	MMEJ-attributed deletion frequency ([2]; 50 nM)	MMEJ-attributed deletion frequency ([2]; 100 nM)	MMEJ-attributed deletion frequency ([2]; 200 nM)	MMEJ-attributed deletion frequency ([2]; 500 nM)	HDR ([3]; 20 nM)	HDR ([3]; 50 nM)	HDR ([3]; 100 nM)	HDR ([3]; 200 nM)	HDR ([3]; 500 nM)	NHEJ-attributed indel frequency ([4]; 20 nM)	NHEJ-attributed indel frequency ([4]; 50 nM)	NHEJ-attributed indel frequency ([4]; 100 nM)	NHEJ-attributed indel frequency ([4]; 200 nM)	NHEJ-attributed indel frequency ([4]; 500 nM)	cell survival ([1]; 2000 nM)	cell survival ([1]; 5000 nM)	cell survival ([1]; 10000 nM)	cell survival ([1]; 20000 nM)	cell survival ([1]; 50000 nM)	MMEJ-attributed deletion frequency ([2]; 2000 nM)	MMEJ-attributed deletion frequency ([2]; 5000 nM)	MMEJ-attributed deletion frequency ([2]; 10000 nM)	MMEJ-attributed deletion frequency ([2]; 20000 nM)	MMEJ-attributed deletion frequency ([2]; 50000 nM)	HDR ([3]; 2000 nM)	HDR ([3]; 5000 nM)	HDR ([3]; 10000 nM)	HDR ([3]; 20000 nM)	HDR ([3]; 50000 nM)	NHEJ-attributed indel frequency ([4]; 2000 nM)	NHEJ-attributed indel frequency ([4]; 5000 nM)	NHEJ-attributed indel frequency ([4]; 10000 nM)	NHEJ-attributed indel frequency ([4]; 20000 nM)	NHEJ-attributed indel frequency ([4]; 50000 nM)
C=CC[C@]1(O)CC[C@H]2[C@@H]3CCC4=CC(=O)CCC4=C3C=C[C@@]21C [Altrenogest] (in DMSO)	1.01	1.11	0.87	1.05	1.06	1 ± 0.085	0.963 ± 0.12	1.02 ± 0.12	0.888 ± 0.14	0.98 ± 0.18	1.08 ± 0.065	1.08 ± 0.06	1.024 ± 0.0079	1.048 ± 0.0023	1.01 ± 0.088	0.9775 ± 0.0069	1.007 ± 0.0051	1.007 ± 0.0033	1 ± 0.038	1.02 ± 0.036	–	–	–	–	–	–	–	–	–	–	–	–	–	–	–	–	–	–	–	–
CC(C)(c1ccc(O)cc1)c1ccc(O)cc1 [Bisphenol A] (in DMSO)	1.02	1.14	0.953	1.22	1.14	1.02 ± 0.062	0.8949 ± 0.0088	0.974 ± 0.23	0.965 ± 0.066	1.01 ± 0.15	1.025 ± 0.0061	1.01 ± 0.028	1.07 ± 0.025	1.023 ± 0.0052	0.983 ± 0.05	1 ± 0.011	1.01 ± 0.014	1.01 ± 0.045	1.015 ± 0.0024	1.02 ± 0.051	–	–	–	–	–	–	–	–	–	–	–	–	–	–	–	–	–	–	–	–
C[C@]12CC[C@@H]3c4ccc(O)cc4CC[C@H]3[C@@H]1C[C@@H](O)[C@@H]2O [Estriol] (in DMSO)	0.994	1.11	0.907	1.02	0.944	0.961 ± 0.14	0.901 ± 0.016	0.923 ± 0.1	0.917 ± 0.12	0.932 ± 0.1	1.18 ± 0.038	1.03 ± 0.06	1.02 ± 0.079	1.04 ± 0.094	1.08 ± 0.14	0.994 ± 0.029	1.01 ± 0.0089	1.01 ± 0.039	1.01 ± 0.018	1.02 ± 0.025	0.929	1.19	1.05	0.994	1.15	0.923 ± 0.2	0.996 ± 0.019	1 ± 0.038	1.04 ± 0.014	0.971 ± 0.029	0.971 ± 0.021	1.12 ± 0.049	1.07 ± 0.019	1.11 ± 0.019	1.15 ± 0.078	1.02 ± 0.015	0.988 ± 0.043	0.987 ± 0.043	0.9898 ± 0.0067	0.986 ± 0.047
CC[C@H](CO)Nc1nc(NCc2ccccc2)c2ncn(C(C)C)c2n1 [Roscovitine (Seliciclib,CYC202)] (in DMSO)	1.04	1.14	0.963	0.955	1.17	0.952 ± 0.12	0.912 ± 0.082	0.943 ± 0.021	0.943 ± 0.18	1 ± 0.058	1.06 ± 0.024	0.983 ± 0.017	1.08 ± 0.043	1.02 ± 0.043	1.11 ± 0.049	1.004 ± 0.0097	1 ± 0.011	0.992 ± 0.013	0.995 ± 0.037	1 ± 0.021	–	–	–	–	–	–	–	–	–	–	–	–	–	–	–	–	–	–	–	–
NCCS [2-Aminoethanethiol] (in DMSO)	0.948	1.07	0.956	1.08	0.899	0.917 ± 0.035	0.862 ± 0.013	0.932 ± 0.18	0.976 ± 0.074	1.04 ± 0.19	1.073 ± 0.0014	1.05 ± 0.08	0.984 ± 0.019	1.12 ± 0.029	0.949 ± 0.16	0.979 ± 0.0017	1.003 ± 0.0053	0.9962 ± 0.0046	1 ± 0.022	1.02 ± 0.052	–	–	–	–	–	–	–	–	–	–	–	–	–	–	–	–	–	–	–	–

— the supplement of paper PMC12698765
